Test results: ChEMBL document CHEMBL1833796, “Locating the binding sites of anticancer tamoxifen and its metabolites 4-hydroxytamoxifen and endoxifen on bovine serum albumin” (Eur J Med Chem, 2011)

Assays:
Assay type in all cases: ADME
[1] = molecular target: T1, Albumin (Bos taurus, UniProt P02769); experiment: Binding affinity to bovine serum albumin at pH 7.4 by Stern-Volmer plot; settings: cattle, isolated protein
[2] = molecular target: T1, Albumin; experiment: Effect on secondary structure of bovine serum albumin assessed as turn structure content at 0.5 uM at pH 7.4 by circular dichroism method (reference value: 12 %); settings: cattle, pH 7.4, 0.5 µM
[3] = molecular target: T1, Albumin; experiment: Binding affinity to bovine serum albumin at pH 7.4 by McGhee and von Hippel method; settings: cattle, isolated protein
[4] = molecular target: T1, Albumin; experiment: Effect on secondary structure of bovine serum albumin assessed as beta-sheet content at 0.5 uM at pH 7.4 by circular dichroism method (reference value: 16 %); settings: cattle, pH 7.4, 0.5 µM
[5] = molecular target: T1, Albumin; experiment: Effect on secondary structure of bovine serum albumin assessed as random coil content at 0.5 uM at pH 7.4 by circular dichroism method (reference value: 6 %); settings: cattle, pH 7.4, 0.5 µM
[6] = molecular target: T1, Albumin; experiment: Binding affinity to bovine serum albumin at pH 7.4 by fluorescence spectroscopy; settings: cattle, isolated protein
[7] = molecular target: T1, Albumin; experiment: Effect on secondary structure of bovine serum albumin assessed as alpha-helix content at 0.5 uM at pH 7.4 by circular dichroism method (reference value: 63 %); settings: cattle, pH 7.4, 0.5 µM
[8] = molecular target: T1, Albumin; experiment: Effect on secondary structure of bovine serum albumin assessed as beta antiparallel content at 0.5 uM at pH 7.4 by circular dichroism method (reference value: 3 %); settings: cattle, pH 7.4, 0.5 µM
[9] = molecular target: T1, Albumin; experiment: Binding affinity to bovine serum albumin at 1 to 100 uM at pH 7.4 by fluorescence spectroscopy; settings: cattle, isolated protein, pH 7.4, 100 µM

T1 sequence (P02769 whole entry): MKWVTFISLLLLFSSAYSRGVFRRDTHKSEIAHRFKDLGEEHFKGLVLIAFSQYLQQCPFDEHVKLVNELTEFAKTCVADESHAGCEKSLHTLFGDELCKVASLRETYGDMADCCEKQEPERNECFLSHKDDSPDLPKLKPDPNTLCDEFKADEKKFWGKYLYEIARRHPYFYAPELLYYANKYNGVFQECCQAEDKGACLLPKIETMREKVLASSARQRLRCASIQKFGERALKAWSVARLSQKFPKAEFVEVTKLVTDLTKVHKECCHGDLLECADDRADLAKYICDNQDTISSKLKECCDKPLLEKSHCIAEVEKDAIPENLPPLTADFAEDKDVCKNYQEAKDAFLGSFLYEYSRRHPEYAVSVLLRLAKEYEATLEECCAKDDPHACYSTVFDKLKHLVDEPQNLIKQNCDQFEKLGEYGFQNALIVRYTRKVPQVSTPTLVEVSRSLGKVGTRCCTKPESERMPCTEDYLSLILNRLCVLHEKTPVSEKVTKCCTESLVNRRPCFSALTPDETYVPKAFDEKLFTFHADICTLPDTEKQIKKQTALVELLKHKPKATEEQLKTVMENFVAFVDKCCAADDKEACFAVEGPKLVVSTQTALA

Structure (SMILES) | K [1] [×10⁴ /M] | Activity [2] [%] | K [3] [×10⁴ /M] | Activity [4] [%] | Activity [5] [%] | K [6] | Activity [7] [%] | Activity [8] [%] | Activity [9] [%]
CC/C(=C(\c1ccc(O)cc1)c1ccc(OCCNC)cc1)c1ccccc1 [ENDOXIFEN] | 0.8 | 21 | 1.1 | 14 | 15 | 8.01 ×10³ /M | 47 | 3 | –
CC/C(=C(\c1ccccc1)c1ccc(OCCN(C)C)cc1)c1ccccc1 [TAMOXIFEN] | 1.96 | 20 | 1.65 | 26 | 10 | 1.96 ×10⁴ /M | 41 | 3 | 98
CCC(=C(c1ccc(O)cc1)c1ccc(OCCN(C)C)cc1)c1ccccc1 | 1.8 | 21 | 1.5 | 17 | 20 | 1.8 ×10⁴ /M | 39 | 3 | –
